Experimental data reported in ChEMBL document CHEMBL1201862, “PubChem BioAssay data set” (2004).
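Cultured in 96-well plates, cells were exposed to test compound for 48 hours across five concentrations. GI50 marks 50% less growth.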 Activity calls are given as the source filed them. No stated cut-off is given here; in the data, active = GI50 up to about 1.1 µM and inactive = higher.

Assays:
Experiment in all cases: NCI-60 cell line screen, 48 h
CCRF-CEM = tested on: CCRF-CEM
DU-145 = tested on: DU-145
HCC 2998 = tested on: HCC 2998
HCT-15 = tested on: HCT-15
IGROV-1 = tested on: IGROV-1
MCF7 = tested on: MCF7
MDA-N = tested on: MDA-N
NCI-H23 = tested on: NCI-H23
OVCAR-3 = tested on: OVCAR-3
SF-268 = tested on: SF-268
SF-295 = tested on: SF-295
SK-MEL-28 = tested on: SK-MEL-28
SNB-19 = tested on: SNB-19
SW-620 = tested on: SW-620
T47D = tested on: T47D
TK-10 = tested on: TK-10
U-251 = tested on: U-251
UO-31 = tested on: UO-31
A498 = tested on: A498
SNB-75 = tested on: SNB-75

Row | SMILES | GI50 (CCRF-CEM) | GI50 (DU-145) | GI50 (HCC 2998) | GI50 (HCT-15) [µM] | GI50 (IGROV-1) | GI50 (MCF7) | GI50 (MDA-N) | GI50 (NCI-H23) | GI50 (OVCAR-3) | GI50 (SF-268) | GI50 (SF-295) | GI50 (SK-MEL-28) | GI50 (SNB-19) | GI50 (SW-620) | GI50 (T47D) | GI50 (TK-10) | GI50 (U-251) | GI50 (UO-31) | GI50 (A498) | GI50 (SNB-75)
1 | O=C1NC(N2CCCCC2)=N/C1=C\c1cccs1 | > 100 µM (inactive) | > 100 µM (inactive) | > 100 µM (inactive) | > 100 | > 100 µM (inactive) | > 100 µM (inactive) | > 100 µM (inactive) | > 100 µM (inactive) | > 100 µM (inactive) | > 100 µM (inactive) | > 100 µM (inactive) | > 100 µM (inactive) | > 100 µM (inactive) | > 100 µM (inactive) | > 100 µM (inactive) | > 100 µM (inactive) | > 100 µM (inactive) | > 100 µM (inactive) | – | –
2 | CC(=O)c1c(O)nnc(-c2ccc(Cl)cc2)c1-c1ccc(Cl)cc1 | 45.7 µM (inactive) | 54.8 µM (inactive) | 61.8 µM (inactive) | 24.2 | 26.2 µM (inactive) | 32.1 µM (inactive) | 33.7 µM (inactive) | 69.3 µM (inactive) | 25.1 µM (inactive) | > 100 µM (inactive) | 46.1 µM (inactive) | 41.9 µM (inactive) | > 100 µM (inactive) | 62.5 µM (inactive) | 31.5 µM (inactive) | 62.4 µM (inactive) | 51.9 µM (inactive) | – | 26.7 µM (inactive) | –
3 | COC(=O)[C@@H]1Cc2ccc(OC)c(c2)OCCC(=O)N1 | > 100 µM (inactive) | > 100 µM (inactive) | > 100 µM (inactive) | > 100 | 3.14 µM (inactive) | > 100 µM (inactive) | > 100 µM (inactive) | > 100 µM (inactive) | > 100 µM (inactive) | > 100 µM (inactive) | > 100 µM (inactive) | > 100 µM (inactive) | > 100 µM (inactive) | > 100 µM (inactive) | > 100 µM (inactive) | > 100 µM (inactive) | > 100 µM (inactive) | > 100 µM (inactive) | – | > 100 µM (inactive)
4 | COC(=O)[C@@H]1C[C@H]2[C@H](c3ccccc3Br)[C@@H](OC(C)=O)[C@@H](OCc3ccccc3)ON2O1 | 49.4 µM (inactive) | > 100 µM (inactive) | 51.9 µM (inactive) | > 100 | 21.9 µM (inactive) | > 100 µM (inactive) | > 100 µM (inactive) | > 100 µM (inactive) | 19.6 µM (inactive) | > 100 µM (inactive) | > 100 µM (inactive) | > 100 µM (inactive) | > 100 µM (inactive) | > 100 µM (inactive) | > 100 µM (inactive) | > 100 µM (inactive) | > 100 µM (inactive) | > 100 µM (inactive) | – | > 100 µM (inactive)
5 | COc1ccc(-c2cc(-c3ccco3)c(C#N)c(=S)n2C2OC(COC(C)=O)C(OC(C)=O)C(OC(C)=O)C2OC(C)=O)cc1 (stereo not drawn) | – | 7.94 µM (inactive) | 14.9 µM (inactive) | 31.6 | 13.3 µM (inactive) | 23.6 µM (inactive) | 5.5 µM (inactive) | 9.71 µM (inactive) | 7.13 µM (inactive) | 8.45 µM (inactive) | 1.96 µM (inactive) | 3.3 µM (inactive) | 5.66 µM (inactive) | 6.19 µM (inactive) | 5.24 µM (inactive) | 30.2 µM (inactive) | 5.94 µM (inactive) | 13.7 µM (inactive) | – | 5.85 µM (inactive)
6 | O=C1C(O)=C(C(CCc2ccccc2)C2=C(O)C(=O)c3ccccc3C2=O)C(=O)c2ccccc21 | 37.9 µM (inactive) | 8.55 µM (inactive) | – | 40.9 | 34.6 µM (inactive) | 40.2 µM (inactive) | 16.2 µM (inactive) | 3.65 µM (inactive) | 30.7 µM (inactive) | 92.9 µM (inactive) | 6.11 µM (inactive) | > 100 µM (inactive) | > 100 µM (inactive) | 47.5 µM (inactive) | > 100 µM (inactive) | > 100 µM (inactive) | 45.6 µM (inactive) | > 100 µM (inactive) | 76.4 µM (inactive) | 45.8 µM (inactive)
7 | COc1ccc(C[C@H]2COC(=O)[C@@H]2Cc2ccccc2)cc1OC | > 100 µM (inactive) | > 100 µM (inactive) | – | – | > 100 µM (inactive) | > 100 µM (inactive) | > 100 µM (inactive) | > 100 µM (inactive) | > 100 µM (inactive) | – | > 100 µM (inactive) | > 100 µM (inactive) | > 100 µM (inactive) | > 100 µM (inactive) | > 100 µM (inactive) | > 100 µM (inactive) | > 100 µM (inactive) | – | > 100 µM (inactive) | –
8 | Cc1ccc(S(=O)(=O)NC(=O)NCCC(=O)O)cc1 | > 100 µM (inactive) | > 100 µM (inactive) | – | 21.4 | > 100 µM (inactive) | > 100 µM (inactive) | > 100 µM (inactive) | 19.3 µM (inactive) | – | > 100 µM (inactive) | > 100 µM (inactive) | > 100 µM (inactive) | > 100 µM (inactive) | > 100 µM (inactive) | > 100 µM (inactive) | > 100 µM (inactive) | > 100 µM (inactive) | > 100 µM (inactive) | – | > 100 µM (inactive)
